Where two headings read alike, the source gives them in different places.
What was measured:
[1] = Fluorescence properties of the new compounds (excitation and emission wavelengths); format: physicochemical
[2] = system: c-myc promoter region G-quadruplex; details: 1 μM ligand, 24 hours, room temperature
Text: (§1) Compounds that bind nucleic acids may show preference for certain sequences. This preference can be used for the detection of specific nucleic acid sequences. One of the methods used to analyse the sequence specificity of DNA-binding compounds is the competition dialysis (c.f. Ren, J. et al., “Sequence and structural selectivity of nucleic acid binding ligands”, Biochemistry, 1999, vol. 38, pp […]). In this method different nucleic acid structures are dialyzed against a common compound solution. […] The amount of compound present in each DNA sequence is measured by fluorescence.
(§2) Furthermore, the inventors analyzed the binding properties of two dimers of the invention, Act-p-Act and Act-p-Qut, in front of several DNA sequences which are known in the state in the art to be biologically-relevant G-quadruplex structures: • 5′- […]-3′, (SEQ ID NO: 1 supra) as thrombin-binding aptamer: G-quadruplex; • 5′- […]-3′ (SEQ ID NO: 2) as a fragment of the promoter region of c-myc oncogen (c.f. Siddiqui-Jain A. et al., “Direct evidence for a G-quadruplex in a promoter region and its targeting with a small molecule to repress c-myc transcription”, Proc. Natl. Acad. Sci. USA, 2002, v. 99, p. […]
(§3) The concentration of the polymer (which is determined by fluorescence spectroscopy) indicates its specificity for a specific sequence: the more higher is the concentration, more specific is for said sequence.

[3] = system: human telomere G-quadruplex; details: 1 μM ligand, 24 hours, room temperature
Text: as §1, §2, §3

AT rich sequences = assay: Competitive dialysis; format: binding
Text: as §1
(§4) We analysed the sequence specificity of the following polymers of the invention: Aca-p-Aca, QgpQgp(npa), Act-(p-Act)5, Act-p-Qut-p-Agt, Act-p-Qut-p-Act, Act-p-Qut-p-Nct, Qut-p-Qut-p-Qut, Act-p-Qut-p-Qut, and Act-p-Act-p-Act for DNA sequences: • duplex with an alternating CG sequence (5′-CGCGCG-T4-CGCGCG-3′); • duplex with a contiguous CG sequence (5′- CCCGGG-T4-CCCGGG-3′); • duplex with an alternating AT sequence (5′-[…]-T4-[…]); • duplex with a contiguous AT sequence (5′-[…]-T4-[…]); • a parallel triplex (5′-T20-3′-3′-T20-5′+A20); and • a G-quadruplex (thrombin-binding aptamer: 5′-[…]-3′ (SEQ ID NO 1); (c.f. Bock, L. C. et al., “Selection of single-stranded DNA molecules that bind and inhibit human thrombin”, Nature, 1992, vol. 355, pp 564-566).
(§5) Said DNA sequences have been used in order to determine: 1) the affinity of each one of the polymers for a specific tandem of nucleotides (CG, AT, GT); and 2) if the affinity for a specific tandem of nucleotides is affected by its distribution into the sequence (i.e., if the tandem is alternated or contiguous in the sequence).
(§6) The competition dialysis assay was performed placing into a beaker 200 ml of dialysate solution containing 1 μM of ligand in 2 mM sodium phosphate, 2 mM EDTA and 0.185 M NaCl pH 7.0. A volume of 0.1 ml (at 1 mg/ml) of each DNA samples was pipeted into a separate 0.1 ml dialysis unit (Mini Slide-A-lyzer 3.5K, Pierce). The dialysis units were placed in the beaker containing the dialysate solution using a floating device. The contents were allowed to equilibrate with continuous stirring for 24 hours at room temperature. At the end of the equilibration period, DNA samples were carefully removed to eppendorf tubes and were taken to a final concentration of 1% (w/v) sodium dodecyl sulfate (SDS). The concentration of polymer within each dialysis unit was then determined by fluorescence spectroscopy. The free polymer concentration was determined using an aliquot of the dialysate solution as well as with the solution coming from a blank (without DNA) dialysis unit.
as §3

[4] = system: parallel triplex (5′-T20-3′-3′-T20-5′+A20); assay: Competitive dialysis; format: binding
Text: as §1, §4, §5, §6, §3

[5] = system: duplex with a contiguous CG sequence (5′- CCCGGG-T4-CCCGGG-3′); assay: Competitive dialysis; format: binding
Text: as §1, §4, §5, §6, §3

[6] = system: G-quadruplex (thrombin-binding aptamer: 5′-GGTTGGTGTGGTTGG-3′); details: 1 μM ligand, 24 hours, room temperature
Text: as §1
(§7) We analysed the sequence specificity of the following polymers of the invention: Aca-p-Aca, QgpQgp(npa), Act-(p-Act)5, Act-p-Qut-p-Agt, Act-p-Qut-p-Act, Act-p-Qut-p-Nct, Qut-p-Qut-p-Qut, Act-p-Qut-p-Qut, and Act-p-Act-p-Act for DNA sequences: • duplex with an alternating CG sequence (5′-CGCGCG-T4-CGCGCG-3′); • duplex with a contiguous CG sequence (5′- CCCGGG-T4-CCCGGG-3′); • duplex with an alternating AT sequence (5′-[…]-T4-[…]); • duplex with a contiguous AT sequence (5′-[…]-T4-[…]); • a parallel triplex (5′-T20-3′-3′-T20-5′+A20); and • a G-quadruplex (thrombin-binding aptamer: 5′-[…]-3′ (SEQ ID NO 1); (c.f. Bock, L. C. et al., “Selection of single-stranded DNA molecules that bind and inhibit human thrombin”, Nature, 1992, vol. 355, pp 564-566). […]

[7] = system: duplex with a contiguous AT sequence (5′-AAAATTTT-T4-AAAATTTT); details: 1 μM ligand, 24 hours, room temperature
Text: as §1, §7

[8] = 1 μM ligand, 24 hours, room temperature

Fluorescence Excitation (nm) ([1]; free compound)	Fluorescence emission (nm) ([1]; free compound)	Compound	affinity (concentration of polymer retained, by fluorescence) (AT rich sequences; [8])	affinity (concentration of polymer retained, by fluorescence) [4, 8]	affinity (concentration of polymer retained, by fluorescence) [5, 8]	other results
358	438	CC(O)C(COP(=O)(O)OC(C)C(CO)NC(=O)c1c2ccccc2nc2ccccc12)NC(=O)c1c2ccccc2nc2c1[nH]c1ccccc12 (centres unmarked) [Example 27, O-{2-N-(Acridine-9-carbamoyl)-(1-hydroxybut-3-yl)} and O-{2-N-(10H-indolo[3,2-d]quinoline-11-carbamoyl)-3-hydroxybut-1-yl) phosphate]				affinity (concentration of polymer retained, by fluorescence) [2]: very high affinity; affinity (concentration of polymer retained, by fluorescence) [3]: very high affinity
353	440	CC(O)C(COP(=O)(O)OC(C)C(COP(=O)(O)OC(C)C(CO)NC(=O)c1c2ccccc2nc2ccccc12)NC(=O)c1c2ccccc2nc2c1[nH]c1ccccc12)NC(=O)c1c2ccccc2nc2c1[nH]c1ccccc12 (centres unmarked) [Example 29, O-{2-N-(Acridine-9-carbamoyl)-(1-hydroxybut-3-yl)} phosphate (3-1) O-{2-N-(10H-indolo[3,2-d]quinoline-11-carbamoyl)-3-oxybut-1-yl} phosphate (3-1) O-(2-N-{10H-indolo[3,2-d]quinoline-11-carbamoyl}-3-hydroxybut-1-yl)]	higher affinity	higher affinity	higher affinity	
350	438	CC(O)C(COP(=O)(O)OC(C)C(COP(=O)(O)OC(C)C(COP(=O)(O)OC(C)C(COP(=O)(O)OC(C)C(COP(=O)(O)OC(C)C(CO)NC(=O)c1c2ccccc2nc2ccccc12)NC(=O)c1c2ccccc2nc2ccccc12)NC(=O)c1c2ccccc2nc2ccccc12)NC(=O)c1c2ccccc2nc2ccccc12)NC(=O)c1c2ccccc2nc2ccccc12)NC(=O)c1c2ccccc2nc2ccccc12 (centres unmarked) [Example 30, O-{2-N-(Acridine-9-carbamoyl)-(1-hydroxybut-3-yl)} phosphate (3-1) O-{2-N-(acridine-9-carbamoyl)-(1-hydroxybut-3-yl)} phosphate (3-1) O-{2-N-(acridine-9-carbamoyl)-(1-hydroxybut-3-yl)} phosphate (3-1) O-{2-N-(acridine-9-carbamoyl)-(1-hydroxybut-3-yl)} phosphate (3-1) O-{2-N-(acridine-9-carbamoyl)-(1-hydroxybut-3-yl)} phosphate (3-1) O-{2-N-(acridine-9-carbamoyl)-3-hydroxybut-1-yl}]		high affinity		
359	499	CC(O)C(COP(=O)(O)OC(C)C(COP(=O)(O)OC(C)C(CO)NC(=O)c1c2ccccc2nc2c1[nH]c1ccccc12)NC(=O)c1c2ccccc2nc2c1[nH]c1ccccc12)NC(=O)c1c2ccccc2nc2c1[nH]c1ccccc12 (centres unmarked) [Example 42, O-{2-N-(10H-indolo[3,2-d]quinoline-11-carbamoyl)-3-oxybut-1-yl} phosphate (3-1) O-{2-N-(10H-indolo[3,2-d]quinoline-11-carbamoyl)-3-oxybut-1-yl} phosphate (3-1) O-(2-N-{10H-indolo[3,2-d]quinoline-11-carbamoyl}-3-hydroxybut-1-yl)]	higher affinity	higher affinity	higher affinity	
		CC(O)C(COP(=O)(O)OC(C)C(COP(=O)(O)OC(C)C(CO)NC(=O)c1c2ccccc2nc2ccccc12)NC(=O)c1c2ccccc2nc2c1[nH]c1ccccc12)NC(=O)c1c2ccccc2nc2ccccc12 (centres unmarked) [Example 44, O-{2-N-(Acridine-9-carbamoyl)-(1-hydroxybut-3-yl)} phosphate (3-1) O-{2-N-(10H-indolo[3,2-d]quinoline-11-carbamoyl)-3-oxybut-1-yl} phosphate (3-1) O-{2-N-(acridine-9-carbamoyl)-(3-hydroxybut-1-yl)}]				affinity (concentration of polymer retained, by fluorescence) (AT rich sequences): higher affinity; affinity (concentration of polymer retained, by fluorescence) [4]: higher affinity; affinity (concentration of polymer retained, by fluorescence) [5]: higher affinity; Fluorescence Excitation (nm) [1]: 359 nm; Fluorescence emission (nm) [1]: 438 nm
349	495	CC(=O)NCCN(CC(=O)NCCN(CC(=O)NCCCCCCO)C(=O)CNC(=O)c1c2ccccc2nc2c1[nH]c1ccccc12)C(=O)CNC(=O)c1c2ccccc2nc2c1[nH]c1ccccc12 [Example 48]				affinity (concentration of polymer retained, by fluorescence) [6]: high affinity; affinity (concentration of polymer retained, by fluorescence) [7]: high affinity

From patent US20100129800A1, “POLYMERS AND THEIR USE AS FLUORESCENT LABELS” (priority 2007, published 2010)
